From patent US20230220313A1, “COMPOSITION AND METHOD FOR INACTIVATING A VIRUS” (RNASSIST LIMITED, priority 2020, published 2023)
Where a name gives a salt, the structure may show the parent alone.

Tested on: not listed separately
Assay: Viscosity by falling ball method
Type: physicochemical
Details: falling ball method at 20° C.

Row | Compound | viscosity
1 | COCCOCCOCCOCCOC [Tetraethylene glycol dimethyl ether] | 3.3 cP
2 | COCCOCCOCCOCCO [Tetraethylene glycol monomethyl ether] | 12 cP

Tested on: SARS-CoV-2
Assay: not given
Details: Welch et al (2020) J. Clin. Microbiology; cited from earlier work

Row | Compound | inactivation of SARS-CoV-2
3 | Triton X-100 | not completely inactivated
4 | CCCCCCCCCCCCOS(=O)(=O)[O-].[Na+] [SDS] | not completely inactivated
5 | N=C(N)N [Guanidine HCl] | not completely inactivated
6 | N#CS.N=C(N)N [Guanidine thiocyanate] | not completely inactivated
